# Legend:
# [1] = tested on: reversed passive Arthus reaction; assay: Inhibitory Action Against Reversed Passive Arthus Reaction; type: in vivo, Jcl SD male rats; settings: p.o. (n = 6)
# Description: This reaction was conducted, in accordance with the method reported by Chang and Otterness [Eur. J. Pharmacol., 69, 155 (1981)], by using rabbit anti-egg albumin (EA) antiserum. Jcl SD male rats (7 wk) were used. Under ether anesthesia, the hair of the back was cut and 1 ml of a 0.5% solution of EA in physiological saline was injected into the tail vein, followed by intracutaneous injection of 0.1 ml each of the left- and right-hand sides of the back. Vascular permeability was measured as follows. Three hours later, 1 ml of physiological saline containing 1% of Evans blue was given intravenously, and 30 minutes later, the animals were sacrificed by bleeding and the skin excised, and the area of wheals stained with a leakage of the dye (major axis x minor axis, mm^2). The test compounds were suspended in a 5% gum arabic solution, which was administered orally one hour before administration of the antigen.
# Wistar-strain rats = assay: Toxicity Test; type: in vivo, Male Wistar-strain rats; settings: 30, 100 and 300 mg/kg per day orally, two weeks
# Description: Male Wistar-strain rats (5 wk) were used in groups of five individuals. The animals of the respective groups were orally administered with the compound of Example 62 at the dose of 30, 100 and 300 mg/kg per day over a period of two weeks as a suspension in gum arabic and water at a rate of 10 ml/kg. The animals of the control group were administered with a suspension of gum arabic in water. [Results]
# cerebral infarction [2] = assay: Action Against Experimental Cerebral Infarction in Mongolian Gerbils (stroke index); type: in vivo; settings: 30 mg/kg, p.o., N = 5
# Description: (§1) Male 10 weeks old Mongolian gerbils were anesthetized with ether. The common carotid artery on both sides was exposed surgically. After waking, the artery was ligated with steel clips for 15 minutes. Then, the clips were removed and the blood was reperfused for three hours. Ataxia symptoms and manifestations of neuro-deficiency were assessed by the method using stroke index [C. P. McGraw: Arch. Neurol., 34, 334-336 (1977)] and inclined plane [A. S. Rivlin et al.: J. Neurosurg., 47, 577-581 (1977)]. The test compounds were orally administered one hour before ligation as a suspension in gum arabic. The control group was administered with the same volume of gum arabic. The number of animals subjected to this experiment was 5 each in both groups.
# ET-induced death = assay: Anti-Endotoxin Shock Activity in Rats: ET-induced death; type: in vivo, Jcl: SD male rats; settings: for Number of survivals: 30 mg/kg p.o. one hour before ET, n = 5
# Description: (§2) In a manner similar to that described in Test Example 2, Jcl: SD male rats (200 to 250 g) were applied with cannulation for measurement of blood pressure and for injecting PAF. The test animals were fasted overnight, and the experiments were conducted. The cannula on the side of femoral artery was connected with a pressure transducer and secured. The, endotoxin (ET) (50 mg/kg) was given through the cannula on the side of femoral vein at a rate of 1 ml/kg. While measuring blood pressure continuously, time until death was measured. Test drugs (30 mg/kg) were suspended in gum arabic and water, which were orally administered (5 ml/kg) to test animals one hour before the injection of ET. The animals in the control group were administered with a suspension of gum arabic in water.
# [3] = tested on: PAF-Induced Platelet Aggregation; assay: Inhibitory Action on PAF-Induced Platelet Aggregation; type: cell-based, New Zealand white male rabbits; settings: Oryctolagus cuniculus, Drug Concentration: 3 × 10^-5 M, rabbit PRP
# Description: Blood was collected from the hearts of conscious New Zealand white male rabbits weighing 2 to 3 kg using citric acid as an anticoagulant (one volume part of 3.15% citric acid per 9 volume parts of the whole blood). The blood was subjected to a centrifuge at 800 rpm for ten minutes to obtain platelet rich plasma (PRP). The remaining blood after collecting the PRP was subjected to a centrifuge at 3000 rpm for ten minutes to obtain platelet poor plasma (PPP). PRP was diluted with PPP, and the number of platelets was adjusted to 500,000/μl. Platelet aggregation was examined by means of turbidimetry [Born, Nature, 194, 927-929 (1962)] with 8 channel aggregometer (NBS HEMA TRACER 6 Nikoh, Bioscience, Japan). More concretely, PRP (250 μl) was kept warm (37° C.) for three minutes in a silicon-processed cuvette, to which was added a test sample (25 μl) dissolved in a physiological saline or in 10mM dimethylsulfoxide followed by dilution with a physiological saline. Two minutes later, PAF (25 μl, 3×10^-9 -1×10^-8 M), dissolved in a physiological saline, was added and then the maximum aggregation rate was determined. As the control, physiological saline without test sample was added to the cuvette, and the inhibitory rate thereon was determined.
# diabetic nephropathy = assay: Action Against Diabetic Nephropathy; type: in vivo, Female KKAy mice; settings: for albumin (%) excreted in urine / Amount of albumin excreted in urine / Amount of glucose in plasma / Amount of triglyceride in plasma / Total amount of protein in urine: 3 weeks, N 8; for albumin (%) excreted in urine: in parentheses; for Amount of albumin excreted in urine / Amount of glucose in plasma / Amount of triglyceride in plasma / Total amount of protein in urine: means ±SE
# Description: Female KKAy mice of 10 weeks old were employed. Test animals were administered with the compound of Example 62 for three weeks at doses of 8 and 26 mg/kg/day in admixture with feedstuff. Then, urine was collected from these animals for 24 hours. Urine desalted (filtered urine) by means of a PD-10 column (Pharmacia) was employed to determine the total protein concentration in the urine by using a protein-assay kit (Bio-Rad). The amount ot albumin in the urine was calculated from the relative concentration of albumin to the total protein determined by means of electrophoresis.
# Glucose and triglyceride in the plasma were determined by an enzyme method using the Ankol Chemistry System (Baker instruments).
# cerebral infarction [4] = assay: Action Against Experimental Cerebral Infarction in Mongolian Gerbils (inclined plane); type: in vivo; settings: 30 mg/kg, p.o., n = 5
# Description: as §1
# ET-induced hypotension = assay: Anti-Endotoxin Shock Activity in Rats: ET-induced hypotension; type: in vivo, Jcl: SD male rats; settings: for Blood Pressure: 30 mg/kg p.o. one hour before ET, n = 5
# Description: as §2
# PAF-Induced Hypotension = assay: Inhibitory Action on PAF-Induced Hypotension; type: in vivo, SD (Jcl) male rats; settings: po, 30 mg/kg p.o., rat
# Description: SD (Jcl) male rats of 6 to 8 week old were subjected to the experiment. After fasting overnight, the rats were cannulated into the femoral artery and vein under anesthesia with pentobarbital. A transducer (MPU-0.5-290O-III, TOYO BALDWIN, Japan) was connected with the artery cannula, and blood pressure was continuously measured. […] The rate of inhibition of lowering of blood pressure after administration of the test samples against the control was evaluated.
# [5] = 8 and 26 mg/kg/day, three weeks
structure (smiles),measurement,setting,value
"COc1cc2c(cc1OC)CCCC(C(=O)N1CCN(C(=O)c3cc(OC)c(OC)c(OC)c3)CC1)=C2 [Example 62, 1-(2,3-dimethoxy-6,7-dihydro-5H-benzocyclohepten-8-ylcarbonyl)-4-(3,4,5-trimethoxybenzoyl)piperazine]",Area of wheals stained with the dye,[1]; 3.1 mg/kg,52.8 ± 2.7 mm^2
same,Preventive effect of reversed passive Arthus reaction,[1]; 3.1 mg/kg,5%
same,Area of wheals stained with the dye,[1]; 12.5 mg/kg,38.4 ± 6.1 mm^2
same,Preventive effect of reversed passive Arthus reaction,[1]; 12.5 mg/kg,31%
same,Preventive effect of reversed passive Arthus reaction,[1]; 50 mg/kg,70%
same,Area of wheals stained with the dye,"[1]; 50 mg/kg, **P < 0.01",16.8 ± 5.1 mm^2
same,body weight between the control group and the test group,Wistar-strain rats,No difference in body weight
same,general behaviors,Wistar-strain rats,no change was observed in general behaviors
same,internal organs under macroscopic observation (autopsy),Wistar-strain rats,no abnormality in internal organs
same,Stroke index,"cerebral infarction [2]; 15 min after reperfusion, **P < 0.01",4.2 ± 0.6
same,Stroke index,"cerebral infarction [2]; 30 min after reperfusion, **P < 0.01",3.4 ± 0.5
same,Stroke index,"cerebral infarction [2]; 60 min after reperfusion, **P < 0.01",3.2 ± 0.5
same,Stroke index,"cerebral infarction [2]; 120 min after reperfusion, **P < 0.01",2.0 ± 0
same,Stroke index,"cerebral infarction [2]; 180 min after reperfusion, **P < 0.01",0.8 ± 0.5
same,Stroke index,cerebral infarction [2]; ligation time 0 min,0
same,Stroke index,"cerebral infarction [2]; ligation time 15 min, *P < 0.05",14.0 ± 1.0
same,Number of survivals,ET-induced death; 0 hr,5
same,Number of survivals,ET-induced death; 1 hr,5
same,Number of survivals,ET-induced death; 2 hr,5
same,Number of survivals,ET-induced death; 3 hr,5
same,Number of survivals,ET-induced death; 4 hr,4
same,Number of survivals,ET-induced death; 5 hr,2
same,Number of survivals,ET-induced death; 6 hr,1
same,Number of survivals,ET-induced death; 7 hr,1
same,Number of survivals,ET-induced death; 8 hr,1
same,survival time,"ET-induced death; 30 mg/kg p.o., control group 108±26 minutes, **",320 ± 45 min
same,inhibition at 30 µM,[3],100%
same,albumin (%) excreted in urine,diabetic nephropathy; 8 mg/kg/day p.o.,46%
same,Amount of albumin excreted in urine,diabetic nephropathy; 8 mg/kg/day p.o.,11.0 ± 2.0 mg/day
same,Amount of glucose in plasma,diabetic nephropathy; 8 mg/kg/day p.o.,326 ± 26 mg/dL
same,Amount of triglyceride in plasma,diabetic nephropathy; 8 mg/kg/day p.o.,499 ± 45 mg/dL
same,Total amount of protein in urine,diabetic nephropathy; 8 mg/kg/day p.o.,23.8 ± 2.9 mg/day
same,suppression of excretion of albumin in urine,diabetic nephropathy; 26 mg/kg/day,significant
same,albumin (%) excreted in urine,diabetic nephropathy; 26 mg/kg/day p.o.,36%
same,Amount of glucose in plasma,diabetic nephropathy; 26 mg/kg/day p.o.,381 ± 33 mg/dL
same,Amount of triglyceride in plasma,diabetic nephropathy; 26 mg/kg/day p.o.,546 ± 43 mg/dL
same,Total amount of protein in urine,diabetic nephropathy; 26 mg/kg/day p.o.,22.0 ± 3.8 mg/day
same,Amount of albumin excreted in urine,"diabetic nephropathy; 26 mg/kg/day p.o., *p<0.05 vs control",8.0 ± 0.7 mg/day
same,excretion of albumin in urine,diabetic nephropathy; [5],suppressed the excretion of albumin in urine dose-dependently
same,plasma glucose,diabetic nephropathy; [5],No change
same,plasma triglyceride,diabetic nephropathy; [5],No change
same,total protein in urine,diabetic nephropathy; high dose,showed a tendency of being suppressed in a high dose
same,Angle of inclined plane where test animals tumble down the ramp,cerebral infarction [4]; 15 min after reperfusion,34 ± 3 °
same,Angle of inclined plane where test animals tumble down the ramp,cerebral infarction [4]; 30 min after reperfusion,35 ± 3 °
same,Angle of inclined plane where test animals tumble down the ramp,"cerebral infarction [4]; 60 min after reperfusion, *P < 0.05",35 ± 2 °
same,Angle of inclined plane where test animals tumble down the ramp,"cerebral infarction [4]; 120 min after reperfusion, *P < 0.05",36 ± 2 °
same,Angle of inclined plane where test animals tumble down the ramp,cerebral infarction [4]; 180 min after reperfusion,38 ± 2 °
same,Angle of inclined plane where test animals tumble down the ramp,cerebral infarction [4]; ligation time 0 min,47 ± 1 °
same,Angle of inclined plane where test animals tumble down the ramp,cerebral infarction [4]; ligation time 15 min,20 ± 0 °
same,lowering of blood pressure due to ET,ET-induced hypotension; 30 mg/kg p.o.,suppressed significantly
same,Blood Pressure,ET-induced hypotension; 0 min,92 ± 2 mmHg
same,Blood Pressure,ET-induced hypotension; 3 min,82 ± 6 mmHg
same,Blood Pressure,"ET-induced hypotension; 5 min, **P < 0.01",90 ± 4 mmHg
same,Blood Pressure,"ET-induced hypotension; 10 min, *P < 0.05",90 ± 4 mmHg
same,Blood Pressure,ET-induced hypotension; 15 min,92 ± 3 mmHg
same,Blood Pressure,ET-induced hypotension; 20 min,95 ± 3 mmHg
same,inhibition in vivo at 30 mg/kg,PAF-Induced Hypotension; after 1 hr,100%
same,inhibition in vivo at 30 mg/kg,PAF-Induced Hypotension; after 2 hrs,100%
same,inhibition in vivo at 30 mg/kg,PAF-Induced Hypotension; after 4 hrs,100%

# From patent US4880809A, “1,4-disubstituted piperazines (or homopiperazines) as platelet-activating factor antagonists” (Takeda Chemical Industries, Ltd., priority 1987, dated 1989)
